Test results from patent US20240287138A1, “CYCLIC PEPTIDES FOR INHIBITING TNF RECEPTOR 1 ACTIVITY” (Merck Sharp & Dohme LLC, priority 2023, published 2024).
Numbered stars: 1 amine (or outer) side, 2 acyl side, 3 side chain; on linkers, the order of the positions; unused ones are H or OH. Square brackets hold non-standard residues; d marks the D form. Peptide text beside a SMILES is read from it. Trp(βS-Me,7-OMe) = COc1cccc2c([C@H](C)[C@H](N)C(=O)O)c[nH]c12; X21 = COc1cccc2c([C@H](C)[C@H](N[*:1])C(=O)[*:2])c(C)[nH]c12; Trp(7-Br) = N[C@@H](Cc1c[nH]c2c(Br)cccc12)C(=O)O; Trp(7-CN) = N#Cc1cccc2c(C[C@H](N)C(=O)O)c[nH]c12; Trp(7-Cl) = N[C@@H](Cc1c[nH]c2c(Cl)cccc12)C(=O)O; Phe(3-CONH2) = NC(=O)c1cccc(C[C@H](N)C(=O)O)c1; Phe(4-CONH2) = NC(=O)c1ccc(C[C@H](N)C(=O)O)cc1; Phe(4-COOH) = N[C@@H](Cc1ccc(C(=O)O)cc1)C(=O)O; 4Pal(3S-Me) = C[C@@H](c1ccncc1)[C@H](N)C(=O)O; Trp(7-aza) = N[C@@H](Cc1c[nH]c2ncccc12)C(=O)O; dPro(trans-4-F) = O=C(O)[C@H]1C[C@H](F)CN1; Pip(5R-OH) = O=C(O)[C@@H]1CC[C@@H](O)CN1; X1 = O=C([C@@H]1CC[C@H](N[*:1])C1)[*:2]; X31 = O=C(CN(CCc1nnco1)[*:1])[*:2]; Pip(4-aza) = O=C(O)[C@@H]1CNCCN1; 4Pal = N[C@@H](Cc1ccncc1)C(=O)O; dHyp = O=C(O)[C@H]1C[C@H](O)CN1; Cit = NC(=O)NCCC[C@H](N)C(=O)O; Ahp(2) = CCCCC[C@H](N)C(=O)O; αMeS = C[C@](N)(CO)C(=O)O; Nle = CCCC[C@H](N)C(=O)O; Sar = CNCC(=O)O

Tests used:
[1] = target: T1, human TNFR1 extracellular domain (ECD) protein (Homo sapiens, UniProt P19438); experiment: SPR binding affinity to captured human TNFR1 ECD
T1 construct: HRV 3C protease cleavage site (C); 6His (C, cleaved yes); made in house; host or cells: Sf21 insect cells (baculovirus), secreted
T1 sequence (P19438 30-211): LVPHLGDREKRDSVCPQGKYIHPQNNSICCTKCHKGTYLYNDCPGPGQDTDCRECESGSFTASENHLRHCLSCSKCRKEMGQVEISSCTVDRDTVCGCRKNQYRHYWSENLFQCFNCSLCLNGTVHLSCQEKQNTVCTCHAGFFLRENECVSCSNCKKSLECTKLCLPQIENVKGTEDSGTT
Summary of the method: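 Read-out: kon, koff and derived affinity from SPR response units. Human TNFR1 and TNFR2 ECD, Avi-tag biotinylated with BirA, captured on a streptavidin surface; peptides injected under laminar flow in HEPES-saline with EDTA, P20 and 2% DMSO.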

[2] = target: T2, TNFα-induced NF-κB signal transduction pathway (TNFR1 signaling) in THP-1 cells (Homo sapiens, UniProt P19438); experiment: THP-1 Lucia NF-κB reporter cell assay, inhibition of TNFα-induced NF-κB signaling; format: cell-based; details: THP-1 NF-κB Lucia reporter cells, 10 ng/mL TNFα, 16-18 h, secreted luciferase; read-out: THP-1 IC50
T2 sequence (P19438 30-455): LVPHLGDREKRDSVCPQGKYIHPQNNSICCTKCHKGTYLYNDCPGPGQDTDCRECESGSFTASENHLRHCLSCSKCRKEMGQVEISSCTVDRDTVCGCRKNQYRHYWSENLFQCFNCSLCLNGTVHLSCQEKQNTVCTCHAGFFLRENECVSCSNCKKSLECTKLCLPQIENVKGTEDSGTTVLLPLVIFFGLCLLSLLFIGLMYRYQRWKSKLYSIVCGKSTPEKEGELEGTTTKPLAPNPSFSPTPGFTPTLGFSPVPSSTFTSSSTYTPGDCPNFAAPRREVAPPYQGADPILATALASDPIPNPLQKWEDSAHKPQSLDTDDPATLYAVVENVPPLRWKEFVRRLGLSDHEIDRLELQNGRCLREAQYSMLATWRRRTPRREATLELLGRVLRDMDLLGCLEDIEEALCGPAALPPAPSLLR
Summary of the method: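 Inhibition of TNFR1-driven NF-κB activation was measured as luminescence of secreted reporter luciferase following overnight (16-18 h) stimulation with 10 ng/mL TNFα.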

CCCC[C@@H]1NC(=O)[C@@H]2CC[C@@H](C2)NC(=O)[C@H]([C@@H](C)c2c(C)[nH]c3c(OC)cccc23)NC(=O)CN(C)C(=O)[C@H](Cc2ccc(C(=O)O)cc2)NC(=O)[C@H](Cc2ccc(C(N)=O)cc2)NC(=O)[C@](C)(CO)NC(=O)[C@H](Cc2c[nH]c3c(Cl)cccc23)NC(=O)[C@H](Cc2ccc(C(=O)O)cc2)NC(=O)[C@H](CC(N)=O)NC(=O)[C@H]2C[C@H](O)CN2C(=O)[C@H](Cc2c[nH]c3ccccc23)NC(=O)[C@@H]2CC[C@@H](O)CN2C(=O)[C@H](Cc2ccncc2)NC1=O [SEQ ID NO. 106] (cyclo([4Pal][Pip(5R-OH)]W[dHyp]N[Phe(4-COOH)][Trp(7-Cl)][αMeS][Phe(4-CONH2)][Phe(4-COOH)][Sar][X21][X1][Nle]))
Kd [1]: 0.04 nM
IC50 [2]: 0.6 nM

CCCCC[C@@H]1NC(=O)[C@@H]2CC[C@@H](C2)NC(=O)[C@H]([C@@H](C)c2c[nH]c3c(OC)cccc23)NC(=O)CN(C)C(=O)[C@H](Cc2cccc(C(N)=O)c2)NC(=O)[C@H](Cc2ccc(C(N)=O)cc2)NC(=O)[C@](C)(CO)NC(=O)[C@H](Cc2c[nH]c3c(Br)cccc23)NC(=O)[C@H](Cc2ccc(C(=O)O)cc2)NC(=O)[C@H](CC(N)=O)NC(=O)[C@H]2C[C@H](O)CN2C(=O)[C@H](Cc2c[nH]c3ccccc23)NC(=O)[C@@H]2CNCCN2C(=O)[C@H](Cc2ccncc2)NC1=O [SEQ ID NO. 109] (cyclo([4Pal][Pip(4-aza)]W[dHyp]N[Phe(4-COOH)][Trp(7-Br)][αMeS][Phe(4-CONH2)][Phe(3-CONH2)][Sar][Trp(βS-Me,7-OMe)][X1][Ahp(2)]))
Kd [1]: 0.05 nM
IC50 [2]: 0.8 nM

CCCCC[C@@H]1NC(=O)[C@@H]2CC[C@@H](C2)NC(=O)[C@H]([C@@H](C)c2c[nH]c3c(OC)cccc23)NC(=O)CN(C)C(=O)[C@H](Cc2ccc(C(N)=O)cc2)NC(=O)[C@H](Cc2ccc(C(N)=O)cc2)NC(=O)[C@](C)(CO)NC(=O)[C@H](Cc2c[nH]c3c(C#N)cccc23)NC(=O)[C@H](Cc2ccc(C(=O)O)cc2)NC(=O)[C@H](CC(N)=O)NC(=O)[C@H]2C[C@H](O)CN2C(=O)[C@H](Cc2c[nH]c3ccccc23)NC(=O)[C@H](CCCNC(N)=O)NC(=O)[C@H]([C@@H](C)c2ccncc2)NC1=O [SEQ ID NO. 110] (cyclo([Ahp(2)][4Pal(3S-Me)][Cit]W[dHyp]N[Phe(4-COOH)][Trp(7-CN)][αMeS][Phe(4-CONH2)][Phe(4-CONH2)][Sar][Trp(βS-Me,7-OMe)][X1]))
Kd [1]: 0.14 nM
IC50 [2]: 1.2 nM

CCCC[C@@H]1NC(=O)[C@@H]2CC[C@@H](C2)NC(=O)[C@H]([C@@H](C)c2c[nH]c3c(OC)cccc23)NC(=O)CN(C)C(=O)[C@H](Cc2ccc(C(N)=O)cc2)NC(=O)[C@H](Cc2ccc(C(N)=O)cc2)NC(=O)[C@](C)(CO)NC(=O)[C@H](Cc2c[nH]c3c(C#N)cccc23)NC(=O)[C@H](Cc2ccc(C(=O)O)cc2)NC(=O)[C@H](CC(N)=O)NC(=O)[C@H]2C[C@H](F)CN2C(=O)[C@H](Cc2c[nH]c3ccccc23)NC(=O)[C@@H]2CC[C@@H](O)CN2C(=O)[C@H](Cc2ccncc2)NC1=O [SEQ ID NO. 114] (cyclo([4Pal][Pip(5R-OH)]W[dPro(trans-4-F)]N[Phe(4-COOH)][Trp(7-CN)][αMeS][Phe(4-CONH2)][Phe(4-CONH2)][Sar][Trp(βS-Me,7-OMe)][X1][Nle]))
Kd [1]: 0.02 nM
IC50 [2]: 0.9 nM

CCCC[C@@H]1NC(=O)[C@@H]2CC[C@@H](C2)NC(=O)[C@H]([C@@H](C)c2c[nH]c3c(OC)cccc23)NC(=O)CN(C)C(=O)[C@H](Cc2ccc(C(=O)O)cc2)NC(=O)[C@H](Cc2ccc(C(N)=O)cc2)NC(=O)[C@](C)(CO)NC(=O)[C@H](Cc2c[nH]c3c(C#N)cccc23)NC(=O)[C@H](Cc2ccncc2)NC(=O)[C@H](CC(N)=O)NC(=O)CN(CCc2nnco2)C(=O)[C@H](Cc2c[nH]c3ncccc23)NC(=O)[C@@H]2CC[C@@H](O)CN2C(=O)[C@H](Cc2ccncc2)NC1=O [SEQ ID NO. 121] (cyclo([4Pal][Trp(7-CN)][αMeS][Phe(4-CONH2)][Phe(4-COOH)][Sar][Trp(βS-Me,7-OMe)][X1][Nle][4Pal][Pip(5R-OH)][Trp(7-aza)][X31]N))
Kd [1]: 0.02 nM
IC50 [2]: 0.9 nM
